Our source for the IC50 values is US9073821B2, “Hydroxamic acid derivative” (priority 2010, dated 2015).

For the first assay, the target named is Pseudomonas aeruginosa LpxC enzyme (Pseudomonas aeruginosa (strain ATCC 15692 / DSM 22644 / CIP 104116 / JCM 14847 / LMG 12228 / 1C / PRS 101 / PAO1), UniProt P47205). Put plainly: biochemical. In kind it is biochemical. The following applies: class symbols A/B/C by IC50; Table 3; read-out: Enzyme inhibitory activity (inhibitory activity on Pseudomonas aeruginosa LpxC enzyme).
In the case of `CNC(=O)[C@@](C)(C(=O)NO)N(C)C(=O)c1ccc(C#Cc2coc(CO)c2)cc1` [Compound 616, (2S)-N-hydroxy-2-[(4-{[5-(hydroxymethyl)furan-3-yl]ethynyl}benzoyl)(methyl)amino]-N′,2-dimethylpropanediamide], the IC50 was below 10 nM.

As for `CCOC1CN(Cc2ccc(C#Cc3ccc(C(=O)N(C)C(C(=O)NC)C(=O)NO)cc3)cc2)C1` (stereo not drawn) [Compound 535, 2-[{[4-({4-[(3-ethoxyazetidin-1-yl)methyl]phenyl}ethynyl)phenyl]carbonyl}(methyl)amino]-N-hydroxy-N′-methylpropanediamide], the IC50 is below 10 nM.

Staying with this assay, now noted: inhibitory activity on Pseudomonas aeruginosa LpxC enzyme, class symbols A/B/C; read-out: Enzyme inhibitory activity.
For `CNC(=O)C(C)(C(=O)NO)N(C)C(=O)c1ccc(C#Cc2ccc(CN3CCCOCC3)cc2)cc1` (stereo not drawn) [Compound 346, N-hydroxy-N′,2-dimethyl-2-{methyl[(4-{[4-(1,4-oxazepan-4-ylmethyl)phenyl]ethynyl}phenyl)carbonyl]amino}propanediamide], the IC50 was below 10 nM.

For `CNC(=O)C(C(=O)NO)N(C)C(=O)c1ccc(-c2ccc(C3OCCO3)cc2)cc1` (stereo not drawn) [Compound 187, 2-[{[4′-(1,3-dioxolan-2-yl)biphenyl-4-yl]carbonyl}(methyl)amino]-N-hydroxy-N′-methylpropanediamide], the IC50 was below 10 nM.

For the compound `O=C(NC(C(=O)NO)C(=O)NCCCc1ccccc1)c1ccc(-c2ccc(OCCO)cc2)cc1` (stereo not drawn) [Compound 126, N-hydroxy-2-({[4′-(2-hydroxyethoxy)biphenyl-4-yl]carbonyl}amino)-N′-(3-phenylpropyl)propanediamide], the IC50 is below 10 nM.

For the compound `CNC(=O)C(C(=O)NO)N(C)C(=O)c1ccc(C#Cc2ccc(CNC(C)(C)C)cc2)cc1` (stereo not drawn) [Compound 328], the IC50 lay in the range of 10 to 100 nM.

Turning to `CNC(=O)C(C(=O)NO)N(C)C(=O)c1ccc(-c2ccc(OCCOCCO)cc2)cc1` (stereo not drawn) [Compound 15, N-hydroxy-2-[({4′-[2-(2-hydroxyethoxy)ethoxy]biphenyl-4-yl}carbonyl)(methyl)amino]-N′-methylpropanediamide], the IC50 lay in the range of 10 to 100 nM.

Consider `CNC(=O)C(C(=O)NO)N(C)C(=O)c1ccc(-c2cc3ccccc3o2)cc1` (stereo not drawn) [Compound 312, 2-[{[4-(1-benzofuran-2-yl)phenyl]carbonyl}(methyl)amino]-N-hydroxy-N′-methylpropanediamide], for which the IC50 was below 10 nM.

On to `CNC(=O)C(C(=O)NO)N(C)C(=O)c1ccc(-c2ccc(N3CCOC3=O)cc2)cc1` (stereo not drawn) [Compound 247, N-hydroxy-N′-methyl-2-(methyl {[4′-(2-oxo-1,3-oxazolidin-3-yl)biphenyl-4-yl]carbonyl}amino)propanediamide], for which the IC50 was in the range of 10 to 100 nM.

Turning to `CNC(=O)C(C(=O)NO)N(C)C(=O)c1ccc(-c2ccc(/C=N/O)cc2)cc1` (stereo not drawn) [Compound 195, N-hydroxy-2-[({4′-[(E)-(hydroxyimino)methyl]biphenyl-4-yl}carbonyl)(methyl)amino]-N′-methylpropanediamide], the IC50 was below 10 nM.

Take `CNC(=O)C(C(=O)NO)N(C)C(=O)c1ccc(-c2ccc(CNC3CC3)cc2)cc1` (stereo not drawn) [Compound 205, 2-[({4′-[(cyclopropylamino)methyl]biphenyl-4-yl}carbonyl)(methyl)amino]-N-hydroxy-N′-methylpropanediamide]: the IC50 lay in the range of 10 to 100 nM.

Take `CNC(=O)[C@](C)(C(=O)NO)N(C)C(=O)c1ccc(C#Cc2ccc(CN3CCCOCC3)cc2)cc1` [Compound 377, (2R)-N-hydroxy-N′,2-dimethyl-2-{methyl[(4-{[4-(1,4-oxazepan-4-ylmethyl)phenyl]ethynyl}phenyl)carbonyl]amino}propanediamide]: the IC50 is below 10 nM.

Consider `CNC(=O)C(C(=O)NO)N(C)C(=O)c1ccc(OC(F)(F)F)cc1` (stereo not drawn) [Compound 22, N-hydroxy-N′-methyl-2-{methyl[4-(trifluoromethoxy)benzoyl]amino}propanediamide], for which the IC50 was above 100 nM.

For `CNC(=O)C(C(=O)NO)N(C)C(=O)c1ccc(-c2ccc3c(c2)N(C)C(=O)CO3)cc1` (stereo not drawn) [Compound 82, N-hydroxy-N′-methyl-2-{methyl[4-(4-methyl-3-oxo-3,4-dihydro-2H-1,4-benzoxazin-6-yl)benzoyl]amino}propanediamide], the IC50 is below 10 nM.

`CNC(=O)C(C(=O)NO)N(C)C(=O)c1ccc(-c2ccc3[nH]c(C)cc3c2)cc1` (stereo not drawn) [Compound 203, N-hydroxy-N′-methyl-2-{methyl[4-(2-methyl-1H-indol-5-yl)benzoyl]amino}propanediamide]: the IC50 is below 10 nM.

As to `CNC(=O)C(C(=O)NO)N(C)C(=O)c1ccc(CCc2ccc(NCCO)cc2)cc1` (stereo not drawn) [Compound 176, N-hydroxy-2-{[4-(2-{4-[(2-hydroxyethyl)amino]phenyl}ethyl)benzoyl](methyl)amino}-N′-methylpropanediamide], the IC50 is below 10 nM.

In the case of `CNC(=O)C(C(=O)NO)N(C)C(=O)c1ccc(C#Cc2ccnc(C)c2)cc1` (stereo not drawn) [Compound 464, N-hydroxy-N′-methyl-2-[methyl({4-[(2-methylpyridin-4-yl)ethynyl]phenyl}carbonyl)amino]propanediamide], the IC50 fell in the range of 10 to 100 nM.

Turning to `CNC(=O)C(C(=O)NO)N(C)C(=O)c1ccc(-c2ccnc(C)c2)cc1` (stereo not drawn) [Compound 451, N-hydroxy-N′-methyl-2-(methyl {[4-(2-methylpyridin-4-yl)phenyl]carbonyl}amino)propanediamide], the IC50 lay in the range of 10 to 100 nM.

Regarding `CNC(=O)C(C(=O)NO)N(C)C(=O)c1ccc(-c2ccc3occc3c2)cc1` (stereo not drawn) [Compound 184, 2-{[4-(1-benzofuran-5-yl)benzoyl](methyl)amino}-N-hydroxy-N′-methylpropanediamide], the IC50 was below 10 nM.

On to `CNC(=O)C(C(=O)NO)N(C)C(=O)c1ccc(C#Cc2coc(CNCC(F)(F)F)c2)cc1` (stereo not drawn) [Compound 488, N-hydroxy-N′-methyl-2-[methyl({4-[(5-{[(2,2,2-trifluoroethyl)amino]methyl}furan-3-yl)ethynyl]phenyl}carbonyl)amino]propanediamide], for which the IC50 was below 10 nM.

On to `CNC(=O)C(C(=O)NO)N(C)C(=O)c1ccc(-c2ccc(OCCOC)cc2)cc1` (stereo not drawn) [Compound 191, N-hydroxy-2-[{[4′-(2-methoxyethoxy)biphenyl-4-yl]carbonyl}(methyl)amino]-N′-methylpropanediamide], for which the IC50 is below 10 nM.

`CCNc1ccc(-c2ccc(C(=O)N(C)C(C(=O)NC)C(=O)NO)cc2)cc1` (stereo not drawn) [Compound 32, 2-[{[4′-(ethylamino)biphenyl-4-yl]carbonyl}(methyl)amino]-N-hydroxy-N′-methylpropanediamide]: the IC50 is below 10 nM.

For the compound `CNC(=O)C(C(=O)NO)N(C)C(=O)c1ccc(C#Cc2ccc(CN3Cc4ccccc4C3)cc2)cc1` (stereo not drawn) [Compound 489, 2-{[(4-{[4-(1,3-dihydro-2H-isoindol-2-ylmethyl)phenyl]ethynyl}phenyl)carbonyl](methyl)amino}-N-hydroxy-N′-methylpropanediamide], the IC50 was below 10 nM.

As for `CNC(=O)C(C(=O)NO)N(C)C(=O)c1ccc(C#Cc2ccc(CNCc3ccccc3)cc2)cc1` (stereo not drawn) [Compound 330, 2-[{[4-({4-[(benzylamino)methyl]phenyl}ethynyl)phenyl]carbonyl}(methyl)amino]-N-hydroxy-N′-methylpropanediamide], the IC50 is below 10 nM.

Consider `CNC(=O)C(C(=O)NO)N(C)C(=O)c1ccc(C#Cc2ccc(CN(C)C)cc2)cc1` (stereo not drawn) [Compound 202, 2-{[4-({4-[(dimethylamino)methyl]phenyl}ethynyl)benzoyl](methyl)amino}-N-hydroxy-N′-methylpropanediamide], for which the IC50 is 10 to 100 nM.

Regarding `CNC(=O)C(C(=O)NO)N(C)C(=O)c1ccc(C#Cc2ccc(CCN3CCCOCC3)cc2)cc1` (stereo not drawn) [Compound 207, N-hydroxy-N′-methyl-2-{methyl[4-({4-[2-(1,4-oxazepan-4-yl)ethyl]phenyl}ethynyl)benzoyl]amino}propanediamide], the IC50 is below 10 nM.

As for `CNC(=O)C(C(=O)NO)N(C)C(=O)c1ccc(-c2ccc(SCCOC)cc2)cc1` (stereo not drawn) [Compound 291, N-hydroxy-2-[({4′-[(2-methoxyethyl)sulfanyl]biphenyl-4-yl}carbonyl)(methyl)amino]-N′-methylpropanediamide], the IC50 was below 10 nM.

In the case of `CNC(=O)C(C(=O)NO)N(C)C(=O)c1ccc(-c2ccc(OCCCN(C)C)cc2)cc1` (stereo not drawn) [Compound 274, 2-[({4′-[3-(dimethylamino)propoxy]biphenyl-4-yl}carbonyl)(methyl)amino]-N-hydroxy-N′-methylpropanediamide], the IC50 lay within 10 to 100 nM.

On to `CCCCc1ccc(-c2ccc(C(=O)N(C)C(C(=O)NC)C(=O)NO)cc2)cn1` (stereo not drawn) [Compound 474, 2-[{[4-(6-butylpyridin-3-yl)phenyl]carbonyl}(methyl)amino]-N-hydroxy-N′-methylpropanediamide], for which the IC50 lay in the range of 10 to 100 nM.

In the case of `CNC(=O)C(C(=O)NO)N(C)C(=O)c1ccc(-c2ccc(NC)cc2)c(NC)c1` (stereo not drawn) [Compound 101, 2-[{[2,4′-bis(methylamino)biphenyl-4-yl]carbonyl}(methyl)amino]-N-hydroxy-N′-methylpropanediamide], the IC50 is above 100 nM.

Turning to `CNC(=O)C(C(=O)NO)N(C)C(=O)c1ccc(C#CC#Cc2ccc(CNCC(C)(C)C)cc2)cc1` (stereo not drawn) [Compound 493, 2-[({4-[4-(4-{[(2,2-dimethylpropyl)amino]methyl}phenyl)buta-1,3-diyn-1-yl]phenyl}carbonyl)(methyl)amino]-N-hydroxy-N′-methylpropanediamide], the IC50 is below 10 nM.

As for `CNC(=O)C(C(=O)NO)N(C)C(=O)c1ccc(C#Cc2ccc(N3CCN(C)CC3)cc2)cc1` (stereo not drawn) [Compound 473, N-hydroxy-N′-methyl-2-{methyl[(4-{[4-(4-methylpiperazin-1-yl)phenyl]ethynyl}phenyl)carbonyl]amino}propanediamide], the IC50 was 10 to 100 nM.

For the compound `CNC(=O)C(C(=O)NO)N(C)C(=O)c1ccc(-c2ccc(OC)c(OC)c2)cc1` (stereo not drawn) [Compound 55, 2-{[(3′,4′-dimethoxybiphenyl-4-yl)carbonyl](methyl)amino}-N-hydroxy-N′-methylpropanediamide], the IC50 is 10 to 100 nM.
